Data from patent publication US7041466B2, “Mouse disease model for evaluation of prophylactic and therapeutic treatments of Chlamydia” (priority 2002, dated 2006).
Entries after “also recorded” stand apart in the source; their conditions may differ. Read-outs that look alike come from different tables or passages of the source.

Tests used:
[1] = tested on: C. psittaci strain B577; details: mouse, in vivo
[2] = tested on: NO production; details: mouse, in vivo
[3] = tested on: C. psittaci; details: mouse, in vivo
[4] = tested on: C. pneumoniae; details: mouse, in vivo
[5] = tested on: splenic CD4+ T cells; details: mouse, in vivo, 6 mg/kg/day
[6] = tested on: IL-12p70, IFN-γ, NOS2, arginase I, arginase II in lung tissue; details: mouse, in vivo, 6 mg/kg

In the case of N=C(N)NN [AG, aminoguanidine], the “chlamydial lung burden on day 7” value [1] is reported as “higher chlamydial burdens”, the “day-12 chlamydial lung burden” value [1] is reported as “greatly reduced” and the day-12 disease [1] is reported as “did not show significant changes”. The “day-12 disease (lung weight increase)” value [1] was “developed severe day-12 disease”, the “day-12 disease phenotype (lung weight increase)” value [1] was “completely reversed the severe day-12 disease phenotype; also recorded: completely protected; also recorded: protected from disease” and the “disease outcomes and numbers of chlamydiae in lung tissue” value [1] was “did not change disease outcomes”. For the same compound, the “elimination of chlamydiae from lungs after day 7” value [1] was “significantly more rapidly”, the day-4 serum nitrite/nitrate ([2]; 6 mg/kg/day) was 73.2 ± 3.8 µM and the day-4 serum nitrite/nitrate ([2]; 200 mg/kg/day) was 39.7 ± 2.9 µM. For the same compound, the “serum nitrite/nitrate (NO production), change in words” value ([2]; ip) was “significantly reduced; also recorded: reduced NO production of infected C57BL/6 mice in a dose-dependent manner”, the “reduction of chlamydial lung burden” value [3] was “more than 10 fold” and the “chlamydial burden on day 7 after secondary infection” value ([3]; 100 mg/kg) was “substantially, but not significantly, higher”. The “disease (interstitial pneumonia) on day 7 after secondary infection” value ([3]; 100 mg/kg) was “completely abolished disease; also recorded: completely abolished the development of interstitial pneumonia”, the “disease on day 7 after secondary infection” value ([3]; 100 mg/kg) was “marginally increased” and the “chlamydial lung loads after secondary infection” value [4] was “reduced chlamydial lung loads”. The “gross lung disease after secondary infection” value [4] was “free of gross lung disease”, the “interstitial pneumonia on day 7 after secondary infection” value [4] was “completely abolished the development of interstitial pneumonia” and the “CD4+ splenocytes, day 4” value [5] was 28.0±0.55%. For the same compound, the “NOS2, arginase I and arginase II transcript levels on days 4 and 12” value [6] was “resembled those of BALB/c mice”, the “day-4 pulmonary IFN-γ transcripts” value [6] was “significant increase” and the “day-4 pulmonary concentration of IL-12 p70” value [6] was “significant increase”.
CCC[C@H](N)C(=O)O [L-norvaline] was tested, and the “chlamydial lung disease (lung weight increase), change in words” value [1] was “significantly increased; also recorded: partially reverted to a disease phenotype”, the “chlamydial lung disease, change in words” value [1] was “did not change the disease” and the day-4 serum nitrite/nitrate [2] was 123.22 ± 38.8 µM. For the same compound, the “serum nitrite/nitrate (NO production), change in words” value [2] was “significantly increased; also recorded: produced more NO”.
